In patent publication US12605370B2, “Agents and compositions for the treatment of glioblastoma” (University of Cincinnati, priority 2020, dated 2026):

What was measured:
Type in all cases: cell-based
[1] = tested on: PTEN-expressing glioblastoma cells; assay: Cell viability in PTEN-expressing glioblastoma cells (cabozantinib comparison)
Method: (§1) Glioblastoma cells were treated to produce two populations: PTEN-expressing and PTEN-deficient. These cells were then treated with either vehicle control, LY2584702, variable concentrations of cabozantinib, or a combination of LY2584702 and variable concentrations of cabozantinib. Cabozantinib is a small molecule inhibitor of RTKs, including TAM receptors. Cell viability was measured after culturing with the inhibitors.

[2] = tested on: PTEN-expressing U-PTEN U87MG cells; assay: Cell viability (CytoTox Glo) in PTEN-expressing U-PTEN U87MG glioblastoma cells; conditions: U-PTEN U87MG (doxycycline-induced PTEN), serum-free, 72 hours
Method: (§2) FIG. 2 depicts a dose curve analysis showing the efficacy of the combination of LY2584702 with merestinib in PTEN-deficient U87MG glioblastoma cells. Viability was measured using CytoTox Glo after culturing with inhibitors in serum-free conditions for 72 hours. Doxycycline addition induced PTEN and protected cells from the cytotoxic effect of combination drug treatment.
(§3) U87MG glioblastoma cells were treated with doxycycline to induce PTEN expression (U-PTEN), while a separate set of U87 glioblastoma cells were treated with a similar amount of vector (U-vector). Thus, the U-vector cells were PTEN-deficient. These cells were then treated with either vehicle control, 10 μM LY2584702, 0.1-20 μM merestinib, or a combination of 10 μM LY2584702 and 0.1-20 μM merestinib. Cell viability was measured using CytoTox Glo after culturing with inhibitors in serum-free conditions for 72 hours.

[3] = tested on: shPTEN LN229 glioblastoma cells; assay: Cell viability (CytoTox Glo) in PTEN-deficient shPTEN LN229 glioblastoma cells; conditions: serum-free, 72 hours
Method: FIG. 1 depicts a dose curve analysis showing the efficacy of the combination of LY2584702 with merestinib in shPTEN LN229 glioblastoma cells. Viability was measured using CytoTox Glo after culturing with inhibitors in serum-free conditions for 72 hours.
(§4) LN229 glioblastoma cells were transduced with either short hairpin RNA (shRNA) lentiviral particles coding for non-targeting shRNA (shNT) or shRNA that targets PTEN mRNA (shPTEN) for inhibition and degradation. These cells were then treated with either vehicle control, 10 μM LY2584702, 0.1-20 μM merestinib, or a combination of 10 μM LY2584702 and 0.1-20 μM merestinib. Cell viability was measured using CytoTox Glo after culturing with inhibitors in serum-free conditions for 72 hours.

[4] = tested on: PTEN-deficient U-vector U87MG glioblastoma cells; assay: Cell viability (CytoTox Glo) in PTEN-deficient U-vector U87MG glioblastoma cells; conditions: serum-free, 72 hours
Method: as §2, §3

shNT LN229 cells = assay: Cell viability (CytoTox Glo) in non-targeting shNT LN229 glioblastoma cells; conditions: serum-free, 72 hours
Method: as §4

[5] = tested on: PTEN-deficient glioblastoma cells; assay: Cell viability in PTEN-deficient glioblastoma cells (cabozantinib comparison)
Method: as §1

[6] = variable concentrations of cabozantinib alone

Measured: cytotoxicity (cell viability)

Cn1cc(-c2ccc(F)c(C(F)(F)F)c2)nc1C1CCN(c2ncnc3[nH]ncc23)CC1 [LY2584702]
not cytotoxic: [1]; LY2584702 alone | [2]; 10 μM LY2584702 alone | [3]; 10 μM LY2584702 alone | [4]; 10 μM LY2584702 alone | shNT LN229 cells; 10 μM LY2584702 alone | [5]; LY2584702 alone

COc1cc2nccc(Oc3ccc(NC(=O)C4(C(=O)Nc5ccc(F)cc5)CC4)cc3)c2cc1OC [cabozantinib]
not cytotoxic: [1]; [6] | [5]; [6]

Cc1ccc(C(=O)Nc2ccc(Oc3cc4cnn(C)c4cc3-c3cn[nH]c3)c(F)c2)c(=O)n1-c1ccc(F)cc1 [merestinib]
not cytotoxic: [2]; 0.1-20 μM merestinib alone | [3]; 0.1-20 μM merestinib alone | [4]; 0.1-20 μM merestinib alone | shNT LN229 cells; 0.1-20 μM merestinib alone
